Laboratory results from patent publication US20190375791A1, “NEW D-CONFIGURED CATESLYTIN PEPTIDE” (priority 2016, published 2019).
≈ marks a conversion by molar mass, not a printed value. Where a SMILES comes first, the peptide text is derived from it. [ ]: non-standard residue; d: D form.

What was measured:
[1] = system: Escherichia coli; test: microbe, parasite or virus in culture; conditions: 24 h
Protocol: (§1) E. coli K-12 mutant E2146 was kindly provided by the Institut Pasteur of Paris. […] It is resistant to specific antibiotics, i.e. ampicillin, chloramphenicol, and kanamycin.
(§2) MIC was determined by broth microdilution. […] Experiments were performed with biological replicates.

[2] = system: Enterococcus faecalis; type: cell-based; conditions: for bacterial growth inhibition of E. faecalis: peptides at 200 μg/mL
Protocol: Enterococcus faecalis (CCM 2541) was obtained from the Czechoslovac Collection of Microorganisms (Czech Republic) Bacteria were cultured in Anaerobe Basal Broth (Oxoid, France) at 37° C. in anaerobic conditions. Candida albicans (ATCC© 10231™) was cultured in Sabouraud medium (BD, France) supplemented with tetracycline (10 μg/mL) and cefotaxime (10 μg/mL).
An overnight culture of each pathogen was diluted (OD600 nm=0.001) and incubated at 37° C. in 96-plates in the presence of different concentrations of antimicrobial agents. When testing Ca(OH)2, the pH of the solution was measured with by pH meter. (CyberScan pH 510©, Eutech, France). After 24 h incubation, the OD620 nm was evaluated with a spectrophotometer (Multikan EX, ThermoScientific, France). Each assay was done at least in triplicate. For each set of assay, the standard deviation was determined.

[3] = system: E. coli (ATCC 25922); test: Resistance acquisition assay; type: cell-based, Escherichia coli; conditions: E. coli wild type cultured at sub-MIC (½ MIC) concentrations, day 28
Protocol: FIG. 1: Resistance acquisition assay of E. coli in the presence of D-CTL compared to ampicillin and cefotaxim. Bacteria were cultured in the presence of ½ MIC of the antibacterial agent for […]. The fold change in MIC was evaluated at the indicated days. The graph is representative of two experiments done independently.
E. coli (ATCC® 25922™ ) strain was sequentially passaged every day in the presence of the different antibacterial compounds: D-CTL, ampicillin or cefotaxime at ½ MIC during 28 days. The changes in the MICs were determined as previously described by broth microdilution at the indicated times.

[4] = system: Parvimonas micra; test: microbe, parasite or virus in culture
Protocol: as §1, §2
(§3) To this aim, they determined the Fractional Inhibitory Concentration Index (FICI) of the combination between D-CTL and each antibiotic of reference.

[5] = system: Candida albicans; test: microbe, parasite or virus in culture; type: cell-based
Protocol: Candida albicans (ATCC© 10231™ distributed by LGC Standards, Molsheim, France) was cultured in Sabouraud medium (Sigma-Aldrich) supplemented with tetracycline (10 μg/mL) and cefotaxime (10 μg/mL) at 37° C. for 24 h. Candida albicans (OD600 nm=0,001) were plated in 96-well plates and treated either with different concentrations of the peptides of interest, and/or with different concentrations of voriconazole (VCZ) (Sigma-Aldrich). As a positive control, cells were treated with 10 μg/mL VCZ. After 24 h incubation, yeast growth was assessed by optical density OD600 nm using a spectrophotometer (Multiscan EX, Shanghai, China).
The MFC is defined as the lowest concentration of peptide able to inhibit 100% of yeasts, and determined using a modified Gompertz model as described in Lambert et Pearson (Lambert and Pearson 2000, J Appl Microbiol, 88(5): 784-790).
The efficiency of the combination D-CTL/VCZ was determined by the calculation of the Fractional inhibitory concentration (FIC) index according to the following formula: FICI=FICD-CTL+FICVCZ. According to EUCAST (European Committee on Antimicrobial Suscpetibility Testing), the effect of the combination is synergistic if FICI≤0,5, additive if 0,5<FICI≤1, indifferent if 1<FICI<2, antagonistic if FICI≥2^40-41. • Results D-CTL Inhibits the Groth of C. albicans

[6] = system: Escherichia coli Amp^R Kan^RChlo^R; conditions: Escherichia coli Amp^R Kan^R Chlo^R (multi-resistant), 24 hours incubation
Protocol: as §1, §2, §3

[7] = Peptide stability assay towards bacterial virulence factors (supernatants) using HPLC; type: in vitro ADME; conditions: 24 hours
Protocol: FIG. 5: Stability of D-CTL and L-CTL towards the virulence factors of different bacterial strains. […] Chromatograms 1 correspond to supernantant only, chromatograms 2 correspond to supernatant and peptide and chromatograms 3 corresponds to peptide only.
Bacteria were then centrifuged for lmin at 13000rpm and the supernatant filtered using a 0,2 μm Millex filter (Merck-Millipore) to remove any residual bacteria.

[8] = 19 μg peptide in 100 μL supernatant, 37° C., 24 h, HPLC
Excerpt: Absence of growth was interpreted as lack of viable microorganism.
Absorbance was monitored at 214 nm and the solvent system consisted of 0.1% (v/v) TFA in water (solvent A) and 0.09% (v/v) TFA in 70% (v/v) acetonitrile-water (solvent B).

[9] = system: Staphylococcus aureus (MSSA); test: microbe, parasite or virus in culture
Protocol: as §1, §2, §3

[10] = system: Staphylococcus aureus (MRSA); test: microbe, parasite or virus in culture; conditions: 24 h
Protocol: as §1, §2, §3

[11] = saliva from ten healthy volunteers, 24 hours
Protocol: Saliva from ten healthy volunteers was incubated with D-CTL or L-CTL for 24 hours and peptide stability was then assessed by LC-SRM. The analyses were performed on an Agilent 1100 Series HPLC system hyphenated to a QQQ-6490 triple quadrupole (Agilent Technologies). A total of 48 transitions (6 precursors) were monitored in an unscheduled mode within a total cycle time of 3 000 ms.
All samples were centrifuged at 14 000 g during 5 min at +4° C. and then diluted 3 times in water with 0.1% (v/v) HCOOH. For each sample, 2 μL were injected on the LC-SRM system. All separations were carried out on Agilent 1100 Series HPLC system (Agilent Technologies). For each analysis, the sample was loaded into a trapping column ZORBAX 300SB-C18 MicroBore Guard 5 gm, 1.0×17 mm (Agilent Technologies) at 50 μL/min with aqueous solution containing 0.1% (v/v) HCOOH and 2% CH3CN. After 3 min trapping, the column was put on-line with a ZORBAX 300SB-C18 3.5 μm, 0.3×150 mm column (Agilent Technologies). […]
For LC-SRM assay, each peptide was targeted with either an oxidized or non-oxidized state [[sequence]]. […] For each of the 6 precursors, 8 transitions were monitored (48 transitions in total) on a QQQ-6490 triple quadrupole mass spectrometer (Agilent technologies) in unscheduled mode and within a cycle time of 3 000 s. […] The reference value was calculated using the equation given by the supplier. […]

[12] = system: Prevotella intermedia; conditions: 24 h
Protocol: as §1, §2, §3

[13] = system: Fusobacterium nucleatum; conditions: 24 h
Protocol: as §1, §2, §3

[14] = Ca(OH)2 0,85 g/L pH 8,5, ½ MIC of D-CTL, HPLC
Protocol: The samples were then analyzed by HPLC. Chromatogram 1 corresponds to D-CTL, chromatogram 2 corresponds to D-CTL diluted in a saturated solution of Ca(OH)2 (pH 9). Absorbance is expressed in Unity of Milli-Absorbance (UmA) depending on the time in minutes (min).
Regarding the stability of D-CTL in Ca(OH)2, the peptide was incubated in a buffered Ca(OH)2 solution at 37° C. for 24 h. The pH of the Ca(OH)2 solution was buffered at the same pH than the one determined during the broth dilution assays. As negative controls, D-CTL in water was also incubated at 37° C. for 24 h.
(§4) The samples were analyzed by HPLC (Dionex, Ultimate 3000, CA USA) using a Nucleosil reverse-phase 300-5C18-colum (4,6×250 mm; particle size: 5 μm; porosity, 300 Å) (Macherey Nagel, France). Two solvents used were: 0.1% (v/v) TFA in water (Solvent A) and 0.09% (v/v) TFA in 70% (v/v) acetonitrile-water (solvent B). Absorbance was measured at 214 nm (A214 nm). The flow rate for elution was 0,7 mL/min with a gradient of solvent B as indicated on the chromatograms.

[15] = 300 μg/mL, 37° C., 24 h, HPLC
Protocol: as §4

`NC[C@H]1O[C@H](O[C@H]2[C@H](O)[C@@H](O[C@H]3O[C@H](CO)[C@@H](O)[C@H](N)[C@H]3O)[C@H](N)C[C@@H]2N)[C@H](O)[C@@H](O)[C@@H]1O` [Kanamycin] showed an MIC ([1]; Escherichia coli) of 21.6 µg/mL (≈ 44.6 µM).

In the case of RSMRLSFRARGYGFRGPGLQL [CAT], the “bacterial growth inhibition of E. faecalis” value [2] is reported as “no antimicrobial activity”.

For `CC1(C)S[C@@H]2[C@H](NC(=O)[C@H](N)c3ccccc3)C(=O)N2[C@H]1C(=O)O` [Ampicillin], the “change in MIC over the culture” value [3] was 3 times the MIC.

Compound `CC1(C)S[C@@H]2[C@H](NC(=O)[C@H](N)c3ccc(O)cc3)C(=O)N2[C@H]1C(=O)O` [Amoxicillin] has an MIC ([4]; 24 h) of 0.45 µg/mL.

For `C[C@@H](c1ncncc1F)[C@](O)(Cn1cncn1)c1ccc(F)cc1F` [VCZ, voriconazole], the MFC ([5]; Candida albicans, 24 h, modified Gompertz model, read-out: minimal fungicidal concentration (MFC)) was 0.07 µg/mL and the FIC ([5]; combination D-CTL/VCZ on Candida albicans) was 0.25.

In the case of `CO/N=C(\C(=O)N[C@@H]1C(=O)N2C(C(=O)O)=C(COC(C)=O)CS[C@H]12)c1csc(N)n1` [Cefotaxim], the “change in MIC over the culture” value [3] is reported as 3 times the MIC and the MIC [6] is reported as 0.09 µg/mL.

In the case of `CSCC[C@H](NC(=O)[C@H](CO)NC(=O)[C@@H](N)CCCNC(=N)N)C(=O)N[C@@H](CCCNC(=N)N)C(=O)N[C@@H](CC(C)C)C(=O)N[C@@H](CO)C(=O)N[C@@H](Cc1ccccc1)C(=O)N[C@@H](CCCNC(=N)N)C(=O)N[C@@H](C)C(=O)N[C@@H](CCCNC(=N)N)C(=O)NCC(=O)N[C@@H](Cc1ccc(O)cc1)C(=O)NCC(=O)N[C@@H](Cc1ccccc1)C(=O)N[C@@H](CCCNC(=N)N)C(=O)O` [L-CTL] (H-RSMRLSFRARGYGFR-OH; N-terminus and C-terminus assumed), the “degradation by virulence factors” value ([7]; supernatant of E. coli multiresistant strain) is reported as “degraded”, the “degradation by virulence factors” value ([7]; supernatant of E. coli wild type strain) is reported as “degraded” and the “stability in the supernatant of Candida albicans” value [8] is reported as “degraded”. For the same compound, the MIC ([4]; 24 hours incubation) was 120 µg/mL, the MIC ([9]; 24 h) was 40 µg/mL and the MIC [10] was 37 µg/mL. The stability in saliva [11] was “unlike L-CTL, D-CTL was stable”, the MIC [12] was 148.6 µg/mL and the MIC [13] was 125.3 µg/mL. The MIC [6] was 150 µg/mL and the MIC [1] was 75 µg/mL (≈ 40.3 µM).

In the case of `CSCC[C@@H](NC(=O)[C@@H](CO)NC(=O)[C@H](N)CCCNC(=N)N)C(=O)N[C@H](CCCNC(=N)N)C(=O)N[C@H](CC(C)C)C(=O)N[C@H](CO)C(=O)N[C@H](Cc1ccccc1)C(=O)N[C@H](CCCNC(=N)N)C(=O)N[C@H](C)C(=O)N[C@H](CCCNC(=N)N)C(=O)NCC(=O)N[C@H](Cc1ccc(O)cc1)C(=O)NCC(=O)N[C@H](Cc1ccccc1)C(=O)N[C@H](CCCNC(=N)N)C(=O)O` [D-CTL] (H-[dR][dS][dM][dR][dL][dS][dF][dR][dA][dR]G[dY]G[dF][dR]-OH; N-terminus and C-terminus assumed), the “degradation in bacterial supernatants” value ([7]; all bacterial supernatants tested, 37° C.) is reported as “not degraded”, the “stability in the supernatant of Candida albicans” value [8] is reported as “remains stable” and the MIC ([4]; 24 hours incubation) is reported as 23 µg/mL. For the same compound, the MIC ([9]; Staphylococcus aureus (MSSA), 24 hours incubation) was 24 µg/mL, the stability in saliva [11] was “stable” and the MIC [12] was 10 µg/mL. The MIC [13] was 22.4 µg/mL, the MIC [6] was 8.4 µg/mL and the “stability in a buffered solution of Ca(OH)2” value [14] was “stable”. The “degradation in the supernatant of E. faecalis” value [15] was “not degraded”, the MIC [1] was 8 µg/mL (≈ 4.3 µM) and the “MIC on E. faecalis” value [2] was 156 µg/mL (≈ 83.9 µM).

For “RILSILRHQNLLKELQDLAL [CHR, bovine chromofungin bCgA47-70]”, the “bacterial growth inhibition of E. faecalis” value [2] was “no antimicrobial activity”.

`CN[C@H](CC(C)C)C(=O)N[C@H]1C(=O)N[C@@H](CC(N)=O)C(=O)N[C@H]2C(=O)N[C@H]3C(=O)N[C@H](C(=O)N[C@H](C(=O)O)c4cc(O)cc(O)c4-c4cc3ccc4O)[C@H](O)c3ccc(c(Cl)c3)Oc3cc2cc(c3O[C@@H]2O[C@H](CO)[C@@H](O)[C@H](O)[C@H]2O[C@H]2C[C@](C)(N)[C@H](O)[C@H](C)O2)Oc2ccc(cc2Cl)[C@H]1O` [Vancomycin] showed an MIC ([10]; Staphylococcus aureus, MRSA) of 0.8 µg/mL.

`COc1cccc(OC)c1C(=O)N[C@@H]1C(=O)N2[C@@H]1SC(C)(C)[C@@H]2C(=O)O` [Methicillin] gave an MIC ([9]; Staphylococcus aureus, MSSA, 24 h) of 1.2 µg/mL.
